The target of one test is T1, SpCas9:DNA interactions (Streptococcus pyogenes serotype M1, UniProt Q99ZW2).
T1 construct: made in house; host or cells: E. coli Rosetta (DE3)
Nature of the test: Differential scanning fluorimetry, disruption of SpCas9-DNA interaction. Format: binding, S. pyogenes. The settings on record: SpCas9 1 μM, 8PAM DNA 2 μM, BRD0539 5-20 μM. On the procedure: Disruption of SpCas9-DNA interaction by BRD0539. Protein melting experiments were performed in a 384-well format using a 6 μL reaction volume in a LightCycler 480 instrument. For DNA binding assay, 1 μM SpCas9 (1 μM) was incubated with indicated amount of 8PAM DNA (0.25, 0.5, 1, and 2 μM) for 15 min in a 20 mM Tris-HCl buffer (150 mM KCl, 5 mM MgCl2, 1 mM DTT, pH 7.5). For inhibition assay, SpCas9 (1 μM) or SpCas9:gRNA (1 μM) was incubated with indicated amount of either BRD0539 or equivalent amount of DMSO for 15 min in a 20 mM Tris-HCl buffer (150 mM KCl, 5 mM MgCl2, 1 mM DTT, pH 7.5). Next, a 8PAM DNA (2 μM) was added to each of the reaction and incubated for additional 15 min followed by addition of 1 μL of 100×SYPRO® Orange (Invitrogen) before running the melting cycle with a temperature gradient of 4.8° C./min. Experiments were performed in duplicate and data were processed using Roche LightCycler® 480 Protein Melting software.
(In general: Differential scanning fluorimetry follows unfolding on heating by fluorescence.)

Another test has as its target SpCas9 (Streptococcus pyogenes serotype M1, UniProt Q99ZW2). Put plainly: HiBiT assay in U2OS.eGFP.PEST cells. It is filed as cell-based, S. pyogenes. Set-up: host or cells: U2OS.eGFP.PEST. The settings on record: 24 h. On the procedure:
HiBiT assay. For SpCas9 expression in cells, the previously described JDS246 plasmid was used (Kleinstiver et al., 2015b). ssODN donor DNA template with the HiBiT tag was purchased as single-stranded Ultramer DNA Oligonucleotides (IDT) and resuspended to 40 μM in nuclease-free water. For the assay, 2×10^5 cells were co-transfected with 300 ng Cas9 plasmid, 75 ng sgRNA plasmid and 100 ng ssODN using the DN-100 program of Lonza 4D nucleofector according to the manufacturer's protocols. For negative controls, either the sgRNA plasmid or the ssODN was omitted. 20,000 transfected cells were plated in each well of a 96-well plate (Corning 3904). Immediately after transfection, cells were treated with varying concentrations of BRD0539 or BRD3433 and incubated at 37° C. with 5% CO2. 24 h after transfection, the cells were washed once with PBS and kept in 80 μL PBS. An equal volume of the Nano-Glo HiBiT Lytic Reagent (Promega N3030), consisting of Nano-Glo HiBiT Lytic Buffer, Nano-Glo HiBiT Lytic Substrate, and LgBiT Protein, was added according to the manufacturer's protocol, and cells were incubated for 10 min at ambient temperature with shaking at 600 rpm (Schwinn et al., 2018a). The cells were then incubated for an additional 10 min without shaking at room temperature to allow equilibration of the HiBiT and LgBiT in the lysate. The lysate was then transferred to a white plate (Corning 3990) and luminescence was measured using an Envision plate reader (Perkin-Elmer) with 1 s of integration time.
A general note: With HiBiT, luminescence reflects the tagged protein that the partner subunit can reach.

SMILES strings stand for the structures. Entries after “also recorded” stand apart in the source; their conditions may differ.

T1 sequence (Q99ZW2 whole entry): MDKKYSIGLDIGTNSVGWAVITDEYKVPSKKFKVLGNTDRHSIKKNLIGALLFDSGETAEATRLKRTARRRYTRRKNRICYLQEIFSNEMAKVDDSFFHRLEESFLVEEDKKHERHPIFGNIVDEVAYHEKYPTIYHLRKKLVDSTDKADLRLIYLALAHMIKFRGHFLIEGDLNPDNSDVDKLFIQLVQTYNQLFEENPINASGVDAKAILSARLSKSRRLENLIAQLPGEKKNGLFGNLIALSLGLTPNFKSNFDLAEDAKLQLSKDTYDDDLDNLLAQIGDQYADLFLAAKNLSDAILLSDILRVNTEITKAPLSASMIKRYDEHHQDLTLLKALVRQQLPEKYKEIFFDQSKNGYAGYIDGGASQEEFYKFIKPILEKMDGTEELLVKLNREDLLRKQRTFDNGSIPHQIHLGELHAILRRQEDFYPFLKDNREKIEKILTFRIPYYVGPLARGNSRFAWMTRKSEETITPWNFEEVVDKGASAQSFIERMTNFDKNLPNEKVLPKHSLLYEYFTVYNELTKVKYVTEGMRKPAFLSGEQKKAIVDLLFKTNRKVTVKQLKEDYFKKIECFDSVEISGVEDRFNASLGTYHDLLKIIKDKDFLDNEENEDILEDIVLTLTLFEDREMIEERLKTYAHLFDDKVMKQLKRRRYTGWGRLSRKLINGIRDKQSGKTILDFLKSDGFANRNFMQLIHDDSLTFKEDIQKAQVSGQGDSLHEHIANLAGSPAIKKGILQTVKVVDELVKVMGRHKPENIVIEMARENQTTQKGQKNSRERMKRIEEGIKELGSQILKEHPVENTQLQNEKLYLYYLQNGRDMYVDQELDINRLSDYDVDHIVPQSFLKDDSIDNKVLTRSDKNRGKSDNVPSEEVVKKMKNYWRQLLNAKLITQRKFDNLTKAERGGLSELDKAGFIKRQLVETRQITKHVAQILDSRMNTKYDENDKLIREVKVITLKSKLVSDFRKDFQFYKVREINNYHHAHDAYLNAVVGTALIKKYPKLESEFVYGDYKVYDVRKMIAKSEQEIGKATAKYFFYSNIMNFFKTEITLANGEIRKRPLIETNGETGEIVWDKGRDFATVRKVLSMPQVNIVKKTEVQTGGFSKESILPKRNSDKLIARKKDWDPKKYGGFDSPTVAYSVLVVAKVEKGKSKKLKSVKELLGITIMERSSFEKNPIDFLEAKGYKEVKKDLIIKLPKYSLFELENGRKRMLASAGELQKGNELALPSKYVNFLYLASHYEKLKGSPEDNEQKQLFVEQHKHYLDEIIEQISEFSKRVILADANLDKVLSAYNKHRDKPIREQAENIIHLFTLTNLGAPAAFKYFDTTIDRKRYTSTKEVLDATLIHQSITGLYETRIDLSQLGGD
SpCas9, sequence (Q99ZW2 whole entry): as above

Take `Cc1ccc(S(=O)(=O)N2CC[C@@H]3[C@H](CO)Nc4ccc(-c5ccccc5F)cc4[C@@H]32)cc1` [BRD0539, ((3aR,4R,9bR)-8-(2-fluorophenyl)-1-tosyl-2,3,3a,4,5,9b-hexahydro-1H-pyrrolo[3,2-c]quinolin-4-yl) methanol]: at SpCas9:DNA interactions, the “effect on formation of the DNA-bound state of SpCas9 (in words)” value was “dose-dependently blocked the formation of the DNA bound state; also recorded: dose-dependently blocked the formation of the DNA-bound state”. Moreover, at SpCas9, the “inhibition of SpCas9 in the HiBiT assay (in words)” value is recorded as “dose-dependent inhibition”. Moreover, at SpCas9 (tested from 4.8-15 μM), the “higher activity of BRD0539 than BRD3497 and BRD9419 in the HiBiT assay” value was “greater than two-fold”.

Source of the values: patent US12391685B2, “Inhibitors of RNA-guided nuclease target binding and uses thereof” (THE BROAD INSTITUTE, INC., priority 2018, dated 2025).
